{"source": "patent US7901667B2", "about": "“Bridgehead labelled compounds and methods of using the same” (Mallinckrodt Inc., priority 2005, dated 2011)", "key": {"[1]": {"tested_on": "α1-adrenoceptors", "settings": "cited from earlier work"}, "[2]": {"settings": "X = Tosylate, relative to tert-Butyl, cited from earlier work; for Relative rate of hydrolysis, calc.: calculated; for Relative rate of hydrolysis, exp.: experimental"}, "[3]": {"molecular_target": "T1, 5-HT1A receptors (Homo sapiens, UniProt P08908)", "T1 sequence (P08908 1-422)": "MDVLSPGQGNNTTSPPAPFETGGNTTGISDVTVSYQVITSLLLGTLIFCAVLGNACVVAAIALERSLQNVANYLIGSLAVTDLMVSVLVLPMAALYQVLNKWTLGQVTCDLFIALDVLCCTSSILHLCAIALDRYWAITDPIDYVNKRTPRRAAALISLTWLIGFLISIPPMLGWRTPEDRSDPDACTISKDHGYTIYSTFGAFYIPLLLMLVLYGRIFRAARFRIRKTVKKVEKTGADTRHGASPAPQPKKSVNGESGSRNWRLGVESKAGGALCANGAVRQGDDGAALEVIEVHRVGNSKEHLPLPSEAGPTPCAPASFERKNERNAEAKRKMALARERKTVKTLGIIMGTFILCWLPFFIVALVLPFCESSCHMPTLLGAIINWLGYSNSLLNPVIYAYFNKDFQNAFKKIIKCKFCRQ", "settings": "cited from earlier work"}, "[4]": {"settings": "amide hydrolysis; cited from earlier work"}, "[5]": {"molecular_target": "T2, human recombinant human 5-HT1A receptor subtype (Homo sapiens, UniProt P08908)", "T2 construct": "purchased Perkin Elmer (Boston, USA); host or cells: HEK-293 EBNA cells (membrane suspension)", "T2 sequence (P08908 1-422)": "T1 sequence (P08908 1-422)", "assay": "competitive binding assay with [^3H]8-OH-DPAT on membranes of HEK-293 EBNA-cells", "protocol": "A membrane suspension from HEK-293 EBNA-cells expressing the human recombinant human 5-HT1A receptor subtype, was obtained from Perkin Elmer (Boston, USA). The protein concentration of the original suspension was 36.8 mg/mL.\nAliquots of these diluted membranes (factor 1:20) were incubated on microplates for 120 min at 37° C. in the dark. […] The incubation buffer contained 50 mM TRIS-HCl and 5 mM MgSO4 (pH to 7.4 at 25° C.). […] Non-specific binding was determined using 5-hydroxytryptamine (5-HT, serotonin) as a competitor in a concentration of 10 μM.\nAfter the incubation period, the reaction was rapidly terminated by vacuum filtration over a GF/C glass fiber filters that were incorporated in the microplates and that were presoaked in 0.5% polyethylenimine (Sigma-Aldrich, Munich, Germany), and washed 5 times with ice-cold TRIS-HCl buffer. 25 μL of scintillation fluid (MicroScint™, Perkin Elmer, Boston, USA) were added to each well, after which the microplates were counted in a liquid scintillation counter (Topcount, Packard).\nFor each candidate tracer, the inhibition constant (Ki) was calculated from the […] for the 5-HT1A receptor with non-linear regression curve fitting using the computer program Graphpad Prism® (version 3.02)."}, "[6]": {"settings": "at 60 min, relative to whole brain average; cited from earlier work"}}}
{"smiles": "COc1ccccc1N1CCN(CCN(C(=O)c2ccc([123I])cc2)c2ccccn2)CC1", "note": "[MPPI]", "values": [{"measurement": "affinity for the α1-adrenoceptors", "setting": "[1]", "result": "quite high affinity"}]}
{"smiles": "Cc1ccc(S(=O)(=O)OC23CCC(CC2)CC3)cc1", "note": "[1-Bicyclo[2.2.2]octyl]", "values": [{"measurement": "Relative rate of hydrolysis, calc.", "setting": "[2]", "result": "10^−8"}, {"measurement": "Relative rate of hydrolysis, exp.", "setting": "[2]", "result": "10^−7"}]}
{"smiles": "Cc1ccc(S(=O)(=O)OC23C4C5C6C4C2C6C53)cc1", "note": "(stereo not drawn) [Cubyl]", "values": [{"measurement": "Relative rate of hydrolysis, calc.", "setting": "[2]", "result": "<10^−25"}, {"measurement": "Relative rate of hydrolysis, exp.", "setting": "[2]", "result": "10^−10"}]}
{"smiles": "COc1ccccc1N1CCN(CCN(C(=O)C2CC3CCC2CC3)c2ccccn2)CC1", "note": "(stereo not drawn) [CPC-222]", "values": [{"measurement": "affinity with regard to WAY-100635", "setting": "[3]", "result": "comparable affinity"}, {"measurement": "stability towards hydrolysis", "setting": "[4]", "result": "stable towards hydrolysis"}]}
{"smiles": "COc1ccccc1N1CCN(CCN(C(=O)C23C4C5C2C2C3C4C52I)c2ccccn2)CC1", "note": "(stereo not drawn) [iodocubyl-WAY]", "values": [{"measurement": "affinity towards the human 5-HT1A (Ki)", "setting": "[5]; [^3H]8-OH-DPAT 1.1 nM, 120 min at 37° C., n=4, values only in FIG. 6", "result": "subnanomolar range"}, {"measurement": "rank of affinity among the bridgehead iodo WAY derivatives", "setting": "[5]; iodobicyclooctyl, iodoadamantyl, iodonorbornyl and iodocubyl compared, FIG. 6", "result": "highest affinity"}]}
{"smiles": "Cc1ccc(S(=O)(=O)OC23CCC(CC2)C3)cc1", "note": "[1-Norbornyl]", "values": [{"measurement": "Relative rate of hydrolysis, calc.", "setting": "[2]", "result": "10^−14"}, {"measurement": "Relative rate of hydrolysis, exp.", "setting": "[2]", "result": "10^−13"}]}
{"smiles": "COc1ccccc1N1CCN(CCN(C(=O)c2ccc(F)cc2)c2ccccn2)CC1", "note": "[MPPF]", "values": [{"measurement": "affinity for the α1-adrenoceptors", "setting": "[1]", "result": "quite high affinity"}]}
{"smiles": "Cc1ccc(S(=O)(=O)OC23CC4CC(CC(C4)C2)C3)cc1", "note": "[1-Adamantyl]", "values": [{"measurement": "Relative rate of hydrolysis, calc.", "setting": "[2]", "result": "10^−4"}, {"measurement": "Relative rate of hydrolysis, exp.", "setting": "[2]", "result": "10^−3"}]}
{"smiles": "COc1ccccc1N1CCN(CCN(C(=O)C2CCC(F)CC2)c2ccccn2)CC1", "note": "(stereo not drawn) [FCWAY]", "values": [{"measurement": "skull uptake of [^18F]", "setting": "[6]", "result": "twice the whole brain average"}]}
